In PubChem BioAssay (NCI):
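Five concentrations, 48 hours, 96-well plates. Abbreviation: GI50, concentration required for 50% inhibition of growth. TGI: concentration producing complete growth inhibition.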

How the values were obtained:
Assay in all cases: NCI anticancer screen, dose series, 48 h; in the data active means GI50 below about 0.43 µM; inactive means the rest
A549 NSCLC = tested on: A549 NSCLC
SF-295 CNS = tested on: SF-295 CNS
SK-MEL-2 melanoma = tested on: SK-MEL-2 melanoma
SW-620 colon = tested on: SW-620 colon
LOX IMVI melanoma = tested on: LOX IMVI melanoma
HL-60(TB) leukemia = tested on: HL-60(TB) leukemia
PC-3 prostate = tested on: PC-3 prostate
M14 melanoma = tested on: M14 melanoma
NCI-H460 lung = tested on: NCI-H460 lung
MCF7 breast = tested on: MCF7 breast
SNB-19 CNS = tested on: SNB-19 CNS
HOP-62 NSCLC = tested on: HOP-62 NSCLC
COLO 205 colon = tested on: COLO 205 colon
SK-MEL-5 melanoma = tested on: SK-MEL-5 melanoma
SF-539 CNS = tested on: SF-539 CNS
NCI/ADR-RES ovarian = tested on: NCI/ADR-RES ovarian
U251 CNS = tested on: U251 CNS
SF-268 CNS = tested on: SF-268 CNS
UACC-62 melanoma = tested on: UACC-62 melanoma
ACHN renal = tested on: ACHN renal
DU-145 prostate = tested on: DU-145 prostate
OVCAR-5 ovarian = tested on: OVCAR-5 ovarian
CAKI-1 renal = tested on: CAKI-1 renal
OVCAR-8 ovarian = tested on: OVCAR-8 ovarian
TK-10 renal = tested on: TK-10 renal
A498 renal = tested on: A498 renal
BT-549 breast = tested on: BT-549 breast
T-47D breast = tested on: T-47D breast
OVCAR-4 ovarian = tested on: OVCAR-4 ovarian

CC(=O)O[C@@H]1C[C@]2(C(C)C)O[C@@]1(C)[C@@H]1CCC(C)=C1[C@@H]2OC(=O)/C=C/c1ccccc1
inactive: GI50 (A549 NSCLC) 47 µM | GI50 (SF-295 CNS) 38.6 µM | GI50 (SK-MEL-2 melanoma) > 100 µM | GI50 (SW-620 colon) 39 µM | GI50 (LOX IMVI melanoma) 29.4 µM | GI50 (HL-60(TB) leukemia) 25.1 µM | GI50 (PC-3 prostate) 8.33 µM | GI50 (M14 melanoma) 40.1 µM | GI50 (NCI-H460 lung) 30.9 µM | GI50 (MCF7 breast) 19.5 µM | GI50 (SNB-19 CNS) 85.3 µM | GI50 (HOP-62 NSCLC) 88.8 µM | GI50 (COLO 205 colon) 31.4 µM | GI50 (SK-MEL-5 melanoma) 22.5 µM | GI50 (SF-539 CNS) > 100 µM | GI50 (NCI/ADR-RES ovarian) 23.1 µM | GI50 (U251 CNS) 48.4 µM | GI50 (SF-268 CNS) 35.1 µM | GI50 (UACC-62 melanoma) 26.5 µM | GI50 (ACHN renal) 4.49 µM | GI50 (DU-145 prostate) 70.1 µM | GI50 (OVCAR-5 ovarian) > 100 µM | GI50 (CAKI-1 renal) 13 µM | GI50 (OVCAR-8 ovarian) 8.89 µM | GI50 (TK-10 renal) 93.2 µM | GI50 (A498 renal) 2.19 µM | GI50 (BT-549 breast) 51.3 µM | GI50 (T-47D breast) 19.7 µM | GI50 (OVCAR-4 ovarian) 11.6 µM
78.5 µM: TGI (SK-MEL-5 melanoma)
> 100 µM: TGI (A549 NSCLC) | TGI (SF-295 CNS) | TGI (SK-MEL-2 melanoma) | TGI (SW-620 colon) | TGI (LOX IMVI melanoma) | TGI (HL-60(TB) leukemia) | TGI (PC-3 prostate) | TGI (M14 melanoma) | TGI (NCI-H460 lung) | TGI (MCF7 breast) | TGI (SNB-19 CNS) | TGI (HOP-62 NSCLC) | TGI (COLO 205 colon) | TGI (SF-539 CNS) | TGI (NCI/ADR-RES ovarian) | TGI (U251 CNS) | TGI (SF-268 CNS) | TGI (UACC-62 melanoma) | TGI (ACHN renal) | TGI (DU-145 prostate) | TGI (OVCAR-5 ovarian) | TGI (CAKI-1 renal) | TGI (OVCAR-8 ovarian) | TGI (TK-10 renal) | TGI (BT-549 breast) | TGI (T-47D breast)
6.59 µM: TGI (A498 renal)
